Laboratory results as given in US10543272B2, “Use of aminolevulinic acid and derivatives thereof” (Photocure ASA, priority 2007, dated 2020).
Where a name gives a salt, the structure may show the parent alone.

Experiments:
Format in all cases: in vivo, human
[1] = test system: patients with facial acne vulgaris; experiment: Pain during light exposure and post-PDT pain, visual analog scale (Phase II study); settings: for Pain during light exposure, Mean: visual analog scale 0-100
Protocol: (§1) A clinical Phase II study involving 23 males and 20 females (age 18 years or more) with facial acne vulgaris (papulo-pustular acne and at least 15 inflammatory acne lesions on at least one side of the face) has been performed. Patients were randomized to receive either MAL cream on the face at a concentration of 160 mg/g (16% wt), 80 mg/g (8% wt) or 40 mg/g (4% wt). The cream was administered under occlusion. […] A light dose of 37 J/cm^2 using Photocure's Aktilite 128 LED light source was provided at a working distance between 5 and 8 cm. The average time to deliver said light dose was about 8 minutes. Safety was evaluated by medical questionnaire and adverse events, i.e., side effects, reporting. Mean pain during light exposure was evaluated by patients on a visual analog scale where 0=no pain and 100=worst possible pain.

[2] = test system: patients with facial acne vulgaris; experiment: Adverse events subsequent to light exposure (Phase II study)
Protocol: as §1, with “reporting. Additional data relating to the adverse events, i.e., side effects, observed subsequent to” for “reporting. Mean pain during”, “exposure during the study are shown in the table below. For” for “exposure was evaluated by”, “patients who received the standard PDT treatment, i.e., patients in the 3 h after MAL (160 mg/g) group, not only” for “patients on”, “a larger number of adverse events were observed than for the patients in any of the other groups, but the adverse events were also more severe in nature, i.e., higher numbers of moderate” for “a visual analog scale where 0=no pain”, “and severe adverse events (AEs) were observed.” for “and 100=worst possible pain.”

[3] = test system: patients with facial acne vulgaris; experiment: Post-PDT erythema from patient journal (Phase II study)
Protocol: as §1, with “This information” for “Safety”, “derived from the journal kept” for “evaluated”, “patients. […] There is a significant difference among the 6 groups in the duration of post PDT erythema (p=0.03). […] In fact, all” for “medical questionnaire and adverse events, i.e., side effects, reporting. Mean pain during light exposure was evaluated by”, “in the standard PDT treatment group experienced post-PDT erythema.” for “on a visual analog scale where 0=no pain and 100=worst possible pain.”

[4] = 160 mg/g 3 h and 80 mg/g 1.5 h groups together
[5] = 3 h, 160 mg/g (standard PDT), 7 patients

Patients in whom light delivery had to be ended because of pain [1, 4]: 2 patients
Patients in whom light delivery had to be interrupted because of pain [1, 4]: 2 patients
Patients experiencing post-PDT pain ([1]; 0.5 h after MAL (80 mg/g)): 1 out of 6
Pain during light exposure, Mean ([1]; MAL cream 40 mg/g, 1 h before red light 37 J/cm^2): 2
Pain during light exposure, Mean ([1]; MAL cream 40 mg/g, 1.5 h before red light 37 J/cm^2): 19
Pain during light exposure, Mean ([1]; MAL cream 80 mg/g, 0.5 h before red light 37 J/cm^2): 1
Pain during light exposure, Mean ([1]; MAL cream 80 mg/g, 1 h before red light 37 J/cm^2): 9
Pain during light exposure, Mean ([1]; MAL cream 80 mg/g, 1.5 h before red light 37 J/cm^2): 32
Pain during light exposure, Mean ([1]; MAL cream 160 mg/g, 3 h before red light 37 J/cm^2 (standard PDT)): 64
Patients experiencing post-PDT pain ([1]; all other groups (40 mg/g 1 h and 1.5 h; 80 mg/g 1 h and 1.5 h)): zero
Patients experiencing post-PDT pain ([1]; standard PDT group (160 mg/g, 3 h)): 5 out of 7
Mean duration of erythema (shortest) ([3]; 40 mg/g for 1 hour): 0.5 days
Mean duration of erythema (longest) ([3]; 160 mg/g for 3 hours): 14 days
Duration of post PDT erythema, Mean ([3]; MAL cream 40 mg/g, 1 h): 4 days
n: number of patients experiencing post-PDT erythema ([3]; MAL cream 40 mg/g, 1 h, 8 patients in group): 4
Duration of post PDT erythema, Mean ([3]; MAL cream 40 mg/g, 1.5 h): 1.8 days
n: number of patients experiencing post-PDT erythema ([3]; MAL cream 40 mg/g, 1.5 h, 8 patients in group): 6
n: number of patients experiencing post-PDT erythema ([3]; MAL cream 80 mg/g, 0.5 h, 6 patients in group): 0
Duration of post PDT erythema, Mean ([3]; MAL cream 80 mg/g, 1 h): 2.1 days
n: number of patients experiencing post-PDT erythema ([3]; MAL cream 80 mg/g, 1 h, 8 patients in group): 5
Duration of post PDT erythema, Mean ([3]; MAL cream 80 mg/g, 1.5 h): 3.7 days
n: number of patients experiencing post-PDT erythema ([3]; MAL cream 80 mg/g, 1.5 h, 6 patients in group): 3
Duration of post PDT erythema, Mean ([3]; MAL cream 160 mg/g, 3 h (standard PDT)): 11.9 days
n: number of patients experiencing post-PDT erythema ([3]; MAL cream 160 mg/g, 3 h (standard PDT), 7 patients in group): 7
Patients experiencing post-PDT erythema ([3]; standard PDT treatment group (160 mg/g, 3 h)): all patients
Compound: COC(=O)CCC(=O)CN [MAL, methylaminolevulinate hydrochloride]
Mild AEs Per Pat ([2]; 0.5 h, 80 mg/g): 0.6
Moderate AEs Per Pat ([2]; 0.5 h, 80 mg/g): 0
Severe AEs Per Pat ([2]; 0.5 h, 80 mg/g): 0
Total AEs Per Pat ([2]; 0.5 h, 80 mg/g): 0.667
Mild AEs ([2]; 0.5 h, 80 mg/g, 6 patients): 4
Moderate AEs ([2]; 0.5 h, 80 mg/g, 6 patients): 0
Severe AEs ([2]; 0.5 h, 80 mg/g, 6 patients): 0
Total AEs ([2]; 0.5 h, 80 mg/g, 6 patients): 4
Mild AEs Per Pat ([2]; 1 h, 40 mg/g): 1.125
Moderate AEs Per Pat ([2]; 1 h, 40 mg/g): 0
Severe AEs Per Pat ([2]; 1 h, 40 mg/g): 0
Total AEs Per Pat ([2]; 1 h, 40 mg/g): 1.125
Mild AEs ([2]; 1 h, 40 mg/g, 8 patients): 9
Moderate AEs ([2]; 1 h, 40 mg/g, 8 patients): 0
Severe AEs ([2]; 1 h, 40 mg/g, 8 patients): 0
Total AEs ([2]; 1 h, 40 mg/g, 8 patients): 9
Mild AEs Per Pat ([2]; 1 h, 80 mg/g): 1.375
Moderate AEs Per Pat ([2]; 1 h, 80 mg/g): 0
Severe AEs Per Pat ([2]; 1 h, 80 mg/g): 0
Total AEs Per Pat ([2]; 1 h, 80 mg/g): 1.375
Mild AEs ([2]; 1 h, 80 mg/g, 8 patients): 11
Moderate AEs ([2]; 1 h, 80 mg/g, 8 patients): 0
Severe AEs ([2]; 1 h, 80 mg/g, 8 patients): 0
Total AEs ([2]; 1 h, 80 mg/g, 8 patients): 11
Mild AEs Per Pat ([2]; 1.5 h, 40 mg/g): 2
Moderate AEs Per Pat ([2]; 1.5 h, 40 mg/g): 0.125
Severe AEs Per Pat ([2]; 1.5 h, 40 mg/g): 0
Total AEs Per Pat ([2]; 1.5 h, 40 mg/g): 2.125
Mild AEs ([2]; 1.5 h, 40 mg/g, 8 patients): 16
Moderate AEs ([2]; 1.5 h, 40 mg/g, 8 patients): 1
Severe AEs ([2]; 1.5 h, 40 mg/g, 8 patients): 0
Total AEs ([2]; 1.5 h, 40 mg/g, 8 patients): 17
Mild AEs Per Pat ([2]; 1.5 h, 80 mg/g): 1.5
Moderate AEs Per Pat ([2]; 1.5 h, 80 mg/g): 0.167
Severe AEs Per Pat ([2]; 1.5 h, 80 mg/g): 0.167
Total AEs Per Pat ([2]; 1.5 h, 80 mg/g): 1.833
Mild AEs ([2]; 1.5 h, 80 mg/g, 6 patients): 9
Moderate AEs ([2]; 1.5 h, 80 mg/g, 6 patients): 1
Severe AEs ([2]; 1.5 h, 80 mg/g, 6 patients): 1
Total AEs ([2]; 1.5 h, 80 mg/g, 6 patients): 11
Mild AEs Per Pat ([2]; 3 h, 160 mg/g (standard PDT)): 2.14
Moderate AEs Per Pat ([2]; 3 h, 160 mg/g (standard PDT)): 1
Severe AEs Per Pat ([2]; 3 h, 160 mg/g (standard PDT)): 0.429
Total AEs Per Pat ([2]; 3 h, 160 mg/g (standard PDT)): 3.571
Mild AEs [2, 5]: 15
Moderate AEs [2, 5]: 7
Severe AEs [2, 5]: 3
Total AEs [2, 5]: 25
Cracked skin with bleeding ([2]; standard PDT treatment, 3 h after MAL (160 mg/g), did not occur with any other treatment modality): one patient
